Laboratory results: patent US20020137929A1, “1 - (3-heterocyclylphenyl) isothiourea, -isourea, -guanidine and -amidine herbicidal agents” (Intellectual Property Department, BASF Aktiengesellschaft, priority 1998, published 2002)

Tests used:
ABUTH (Velvetleaf) = assay: Preemergence herbicidal evaluation; format: in vivo, Abutilon theophrasti; details: rated 4-5 weeks after treatment
Procedure, shortened: (§1)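 Visual 0-9 rating vs control (stand, vigor, malformation, size, chlorosis, overall appearance), scored 4-5 wk after spraying. Seeded soil cups were treated preemergence with compound in aqueous acetone, ~0.0156-0.500 kg/ha equivalent.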

[1] = system: TRZAWR (Wheat, Winter, cv Riband); assay: Preemergence herbicidal evaluation; format: in vivo, Triticum aestivum; details: rated 4-5 weeks after treatment
Procedure, shortened: as §1

[2] = system: ECHORC (Watergrass (Calif.)); assay: Preemergence weed control under flooded paddy conditions; format: in vivo, Echinochloa oryzoides; details: rated 3-4 weeks after treatment
Procedure, shortened: (§2)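 Herbicidal effect is scored visually on a 0-9 scale against an untreated control, three to four weeks after compounds are pipetted into the flood water (1.5 to 3 cm deep) over seeds planted in silt loam at 0.5 cm depth. Rates: about 0.0313 to 0.500 kg/ha.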

CYPIR (Rice Flatsedge) = assay: as above; format: in vivo, Cyperus iria; details: rated 3-4 weeks after treatment
Procedure, shortened: as §2

[3] = system: SAGPY (Arrowhead (Pygmaea)); assay: as above; format: in vivo, Sagittaria pygmaea; details: rated 3-4 weeks after treatment
Procedure, shortened: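 First, seeds or propagules go into the top 0.5 cm of silt loam; next, water is held 1.5 to 3 cm over the soil; then compound (50/50 acetone/water) is pipetted into it at about 0.0313 to 0.500 kg/ha; finally plants are rated visually 0-9 after three to four weeks.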

ORYSAT (Rice, Tebonnet) [4] = assay: Rice tolerance to post-transplant applications, flooded paddy conditions (Table III); format: in vivo, Oryza sativa, (L.) Tebonnet; details: in vivo
Procedure, shortened: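 Injury scored 0-9 by eye against untreated control, judging stand, vigor, malformation, size and chlorosis, three to four weeks after treatment. Compound in 50/50 aqueous/acetone, about 0.0313 to 0.500 kg/ha, was applied to paddy water (1.5 to 3 cm depth) three days after transplanting paired ten-day-old Tebonnet rice seedlings.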

MOOVA (Monochoria) = assay: Postemergence weed control under flooded paddy conditions; format: in vivo, Monochoria vaginalis; details: postemergence weeds, 3-4 weeks after treatment
Procedure, shortened: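 Herbicidal effect is judged by eye on a 0–9 scale versus control, 3–4 weeks after dosing. Dosing is into flood water kept 1.5–3 cm over the soil, at about 0.0313–0.500 kg/ha in aqueous/acetone 50/50 v/v, on 3–5 cm weeds and 1.5–2.5-leaf rice seedlings.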

ORYSAT (Rice, Tebonnet) [5] = assay: Rice tolerance to post-transplant applications, flooded paddy conditions (Table IV); format: in vivo, Oryza sativa, (L.) Tebonnet; details: in vivo
Procedure, shortened: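 Flood-water application, about 0.0313–0.500 kg/ha a.i. in aqueous/acetone 50/50 v/v; water depth 1.5–3 cm throughout. Weeds 3–5 cm, rice 1.5–2.5 leaf. Greenhouse; 0–9 visual rating vs control at 3–4 wk.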

Row | SMILES | Herbicidal rating ECHORC ([2]; 0.0625 kg/ha) | Herbicidal rating ECHORC ([2]; 0.1250 kg/ha) | Herbicidal rating ECHORC ([2]; 0.2500 kg/ha) | Herbicidal rating CYPIR (CYPIR (Rice Flatsedge); 0.0625 kg/ha) | Herbicidal rating CYPIR (CYPIR (Rice Flatsedge); 0.1250 kg/ha) | Herbicidal rating CYPIR (CYPIR (Rice Flatsedge); 0.2500 kg/ha) | Herbicidal rating SAGPY ([3]; 0.0625 kg/ha) | Herbicidal rating SAGPY ([3]; 0.1250 kg/ha) | Herbicidal rating SAGPY ([3]; 0.2500 kg/ha) | Herbicidal rating ORYSAT (rice tolerance) (ORYSAT (Rice, Tebonnet) [4]) | Herbicidal rating MOOVA (MOOVA (Monochoria); rate 0.0625 kg/ha) | Herbicidal rating MOOVA (MOOVA (Monochoria); rate 0.1250 kg/ha) | Herbicidal rating MOOVA (MOOVA (Monochoria); rate 0.2500 kg/ha) | Herbicidal rating ORYSAT (rice tolerance) (ORYSAT (Rice, Tebonnet) [5]) | also measured
1 | CCOC(=O)CN1C(=O)C(Cc2ccccc2)SC1=Nc1cc(-n2c(=O)cc(C(F)(F)F)n(C)c2=O)c(F)cc1Cl (stereo not drawn) [Compound 24, Ethyl 5-benzyl-2-{{2-chloro-5-[3,6-dihydro-3-methyl-2,6-dioxo-4-(trifluoromethyl)-1(2H)-pyrimidinyl]-4-fluorophenyl}imino}-4-oxo-3-thiazolidineacetate] | 9.0 | 9.0 | 9.0 | 0.0 | 0.0 | 0.0 | 0.0 | 0.0 | 0.0 | 0.0 | 9.0 | 9.0 | 9.0 | 0.0 | ABUTH preemergence herbicidal rating (ABUTH (Velvetleaf); rate 0.0625 kg/ha): 4.0; ABUTH preemergence herbicidal rating (ABUTH (Velvetleaf); rate 0.1250 kg/ha): 9.0; ABUTH preemergence herbicidal rating (ABUTH (Velvetleaf); rate 0.2500 kg/ha): 9.0; TRZAWR preemergence herbicidal rating ([1]; rate 0.0625 kg/ha): 0.0; TRZAWR preemergence herbicidal rating ([1]; rate 0.1250 kg/ha): 0.0; TRZAWR preemergence herbicidal rating ([1]; rate 0.2500 kg/ha): 0.0; Herbicidal rating ECHORC ([2]; 0.0313 kg/ha): 4.0; Herbicidal rating CYPIR (CYPIR (Rice Flatsedge); 0.0313 kg/ha): 0.0; Herbicidal rating SAGPY ([3]; 0.0313 kg/ha): 0.0; Herbicidal rating MOOVA (MOOVA (Monochoria); rate 0.0313 kg/ha): 0.0
2 | C[C@@H](C(=O)O)N1C(=O)CS/C1=N/c1cc(-n2c(=O)cc(C(F)(F)F)n(C)c2=O)c(F)cc1Cl [Compound 51, 2-{{2-Chloro-5-[3,6-dihydro-3-methyl-2,6-dioxo-4-(trifluoromethyl)-1(2H)-pyrimidinyl]-4-fluoro-phenyl}imino}-α-methyl-4-oxo-3-thiazolidineacetic acid, L-] | 0.0 | 0.0 | 0.0 | 2.0 | 3.0 | 6.0 | 0.0 | 0.0 | 0.0 | 0.0 | 3.0 | 4.0 | 4.0 | 0.0 | Preemergence herbicidal rating ABUTH (ABUTH (Velvetleaf); rate 0.0156 kg/ha): 9.0; Preemergence herbicidal rating ABUTH (ABUTH (Velvetleaf); rate 0.0313 kg/ha): 9.0; Preemergence herbicidal rating ABUTH (ABUTH (Velvetleaf); rate 0.0625 kg/ha): 9.0; Preemergence herbicidal rating ABUTH (ABUTH (Velvetleaf); rate 0.1250 kg/ha): 7.0; Preemergence herbicidal rating ABUTH (ABUTH (Velvetleaf); rate 0.2500 kg/ha): 9.0; Preemergence herbicidal rating TRZAWR ([1]; rate 0.0156 kg/ha): 0.0; Preemergence herbicidal rating TRZAWR ([1]; rate 0.0313 kg/ha): 0.0; Preemergence herbicidal rating TRZAWR ([1]; rate 0.0625 kg/ha): 0.0; Preemergence herbicidal rating TRZAWR ([1]; rate 0.1250 kg/ha): 2.0; Preemergence herbicidal rating TRZAWR ([1]; rate 0.2500 kg/ha): 6.0
